From patent publication US12384800B2, “Antitumoral compounds” (priority 2017, dated 2025)

Experiments:
[1] = MTD (Maximum Tolerated Dose) determination, single iv administration; type: in vivo; conditions: mice; iv/SD (single dose); monitored up to 14 days
Text: (§1) Female CD-1 or Athymic Nude-Fox1 nu/nu mice (Envigo) were utilized for all experiments. […] Animals were acclimated for five days prior to being individually tattoo-identified. Animal protocols were reviewed and approved according to the regional Institutional Animal Care and Use Committees.
(§2) Mice were randomly allocated into experimental groups and intravenously administered, once for the MTD (Maximum Tolerated Dose) determination or one administration a week during three consecutive weeks, for the MTMD (Maximum Tolerated Multiple Dose) determination study. The animals were administered with white formulation or with compound dissolved in the experimental formulation at different concentrations. The volume administered was always […]. Once administered, animals were monitored for clinical signs of systemic toxicity, changes in body weight and mortality up to 14 days after the administration.

HT1080 tumors = test: Human fibrosarcoma xenograft, total diameter (tumor + leg)
Protocol: Female athymic nu/nu mice (Harlan Laboratories Models, S.L. Barcelona, Spain or Envigo, Spain) were utilized for all experiments. Animal were housed in individually ventilated cages Sealsafe® Plus, Techniplast S.P.A.), up to ten per cage on a 12-hour light-dark cycle at 21-23° C. and 40-60% humidity. […] Animals were acclimated for at least 5 days prior to tumor implantation with a tumor cell suspension.
HT1080 cells were maintained in vitro at 37° C. with 5% CO2 in Minimum Essential Medium Eagle (MEME) (Sigma-Aldrich, Co). Each animal was orthotopically implanted into gastroecnemius muscle by an intramuscular injection using a 26G needle and a 1 cc syringe at 4-6 weeks of age, with 10×10^6 HT1080 cells, suspended in serum free medium, without antibiotics.
Treatment tolerability was assessed by monitoring body weight evolution, clinical signs of systemic toxicity, as well as evidences of local damage in the injection site.
In xenograft studies with HT1080 cell line: • Total diameter (tumor+leg) measurements were determined by using digital caliper (Fowler Sylvac, S235PAT).
Treatments producing >20% lethality and/or 20% net body weight loss were considered toxic.

[2] = MTMD (Maximum Tolerated Multiple Dose) determination, iv weekly x 3; type: in vivo; conditions: mice; iv/Q7d × 3
Text: as §1, §2

[3] = test system: PSN1 cells (pancreas adenocarcinoma); test: cells; conditions: PSN1, SRB; for GI50: 72 hours treatment; for TGI: total cell growth inhibition; for TGI / CC50: 72 hours; for CC50: read-out: LC50, 50% net cell killing
Text: (§3) The aim of this assay is to evaluate the in vitro cytostatic (ability to delay or arrest tumor cell growth) or cytotoxic (ability to kill tumor cells) activity of the samples being tested.
(§4) A colorimetric assay, using sulforhodamine B (SRB) reaction has been adapted to provide a quantitative measurement of cell growth and viability (following the technique described by Skehan et al. J. Natl. Cancer Inst. 1990, 82, 1107-1112). Another colorimetric assay based on 3-(4,5-Dimethylthiazol-2-yl)-2,5-diphenyltetrazolium bromide (MTT) reduction to a purple formazan has been also used to assess the antiproliferative activity (following the technique described by Mosmann et al. J. Immunol. Meth. 1983, 65, 55-63).
(§5) These forms of assays employ 96-well cell culture microplates following the standards of the American National Standards Institute and the Society for Laboratory Automation and Screening (ANSI SLAS 1-2004 (R2012) Oct. 12, 2011. All the cell lines used in this study were obtained from the American Type Culture Collection (ATCC) and derive from different types of human cancer.
(§6) A549, HT29, MDA-MB-231 and PSN1 cells were maintained in Dulbecco's Modified Eagle Medium (DMEM) while PC-3 and 22Rv1 cells were maintained in Roswell Park Memorial Institute Medium (RPMI). All cell lines were supplemented with 10% Fetal Bovine Serum (FBS), 2 mM L-glutamine, 100 U/mL penicillin, and 100 […] at 37° C., 5% CO2 and 98% humidity. For the experiments, cells were harvested from subconfluent cultures using trypsinization and resuspended in fresh medium before counting and plating.
(§7) A549, HT29, MDA-MB-231 and PSN1 cells were seeded in 96 well microtiter plates, at 5000 cells per well in aliquots of 150 μL, and allowed to attach to the plate surface for 18 hours (overnight) in drug free medium. After that, one control (untreated) plate of each cell line was fixed (as described below) and used for time zero reference value. Culture plates were then treated with test compounds (50 μL aliquots of 4× stock solutions in complete culture medium plus 4% DMSO) using ten ⅖ serial dilutions (concentrations ranging from 10 to 0.003 μg/mL) and triplicate cultures (1% final concentration in DMSO). After 72 hours treatment, the antitumor effect was measured by using the SRB methodology: Briefly, cells were washed twice with PBS, fixed for 15 min in 1% glutaraldehyde solution at room temperature, rinsed twice in PBS, and stained in 0.4% SRB solution for 30 min at room temperature. Cells were then rinsed several times with 1% acetic acid solution and air-dried at room temperature.
(§8) Effects on cell growth and survival were estimated by applying the NCI algorithm (Boyd M R and Paull K D. Drug Dev. Res. 1995, 34, 91-104). The values obtained in triplicate cultures were fitted by nonlinear regression to a four-parameters logistic curve by nonlinear regression analysis.

[4] = test system: A549 cells (lung carcinoma, NSCLC); test: cells; conditions: A549, SRB; for GI50: 72 hours treatment; for TGI: total cell growth inhibition; for TGI / CC50: 72 hours; for CC50: read-out: LC50, 50% net cell killing
Text: as §3, §4, §5, §6, §7, §8

[5] = test system: MDA-MB-231 cells (breast adenocarcinoma); test: cells; conditions: MDA-MB-231, SRB; for GI50: 72 hours treatment; for TGI: total cell growth inhibition; for TGI / CC50: 72 hours; for CC50: read-out: LC50, 50% net cell killing
Text: as §3, §4, §5, §6, §7, §8

[6] = test system: HT29 cells (colorectal adenocarcinoma); test: cells; conditions: HT29, SRB; for GI50: 72 hours treatment; for TGI: total cell growth inhibition; for TGI / CC50: 72 hours; for CC50: read-out: LC50, 50% net cell killing
Text: as §3, §4, §5, §6, §7, §8

[7] = Day 0.0, iv Days 0, 7 and 14, compound C 3.0 mg/kg, 4-S […], 12-S […]
[8] = Day 2.0, iv Days 0, 7 and 14, compound C 3.0 mg/kg, 4-S […], 12-S […]
[9] = Day 5.0, iv Days 0, 7 and 14, compound C 3.0 mg/kg, 4-S […], 12-S […]
[10] = Day 7.0, iv Days 0, 7 and 14, compound C 3.0 mg/kg, 4-S […], 12-S […]
[11] = Day 9.0, iv Days 0, 7 and 14, compound C 3.0 mg/kg, 4-S […], 12-S […]
[12] = Day 12.0, iv Days 0, 7 and 14, compound C 3.0 mg/kg, 4-S […], 12-S […]
[13] = Day 14.0, iv Days 0, 7 and 14, compound C 3.0 mg/kg, 4-S […], 12-S […]
[14] = Day 16.0, iv Days 0, 7 and 14, compound C 3.0 mg/kg, 4-S […], 12-S […]
[15] = Day 19.0, iv Days 0, 7 and 14, compound C 3.0 mg/kg, 4-S […], 12-S […]
[16] = Day 21.0, iv Days 0, 7 and 14, compound C 3.0 mg/kg, 4-S […], 12-S […]
[17] = Day 23.0, iv Days 0, 7 and 14, compound C 3.0 mg/kg, 4-S […], 12-S […]

COc1c(C)cc2c(c1O)[C@@H]1[C@@H]3[C@@H]4SC[C@]5(N[C@H](CO)Cc6c5[nH]c5ccccc65)C(=O)OC[C@@H](c5c6c(c(C)c(OC(C)=O)c54)OCO6)N3[C@@H](O)[C@H](C2)N1C [Compound 4-S]
MTD [1]: 1.0 mg/kg | Total diameter (tumor + leg) (HT1080 tumors; [7]): 7.5 mm | Total diameter (tumor + leg) (HT1080 tumors; [8]): 7.7 mm | Total diameter (tumor + leg) (HT1080 tumors; [9]): 8.3 mm | Total diameter (tumor + leg) (HT1080 tumors; [10]): 8.8 mm | Total diameter (tumor + leg) (HT1080 tumors; [11]): 8.4 mm | Total diameter (tumor + leg) (HT1080 tumors; [12]): 8.4 mm | Total diameter (tumor + leg) (HT1080 tumors; [13]): 9.6 mm | Total diameter (tumor + leg) (HT1080 tumors; [14]): 10.0 mm | Total diameter (tumor + leg) (HT1080 tumors; [15]): 10.4 mm | Total diameter (tumor + leg) (HT1080 tumors; [16]): 12.1 mm | Total diameter (tumor + leg) (HT1080 tumors; [17]): 12.7 mm

COc1c(C)cc2c(c1O)[C@@H]1[C@@H]3[C@@H]4SC[C@]5(N[C@@H](C)Cc6c5[nH]c5ccccc65)C(=O)OC[C@@H](c5c6c(c(C)c(OC(C)=O)c54)OCO6)N3[C@@H](O)[C@H](C2)N1C [Compound D]
MTMD [2]: 0.5 mg/kg | Total diameter (tumor + leg) (HT1080 tumors; Day 0): 7.5 mm | Total diameter (tumor + leg) (HT1080 tumors; Day 0, iv Days 0, 7 and 14, PM01183 […], Compound D 0.5 mg/kg): 7.7 mm | Total diameter (tumor + leg) (HT1080 tumors; Day 2): 8.2 mm | Total diameter (tumor + leg) (HT1080 tumors; Day 2, iv Days 0, 7 and 14, PM01183 […], Compound D 0.5 mg/kg): 9.5 mm | Total diameter (tumor + leg) (HT1080 tumors; Day 5): 7.5 mm | Total diameter (tumor + leg) (HT1080 tumors; Day 5, iv Days 0, 7 and 14, PM01183 […], Compound D 0.5 mg/kg): 8.8 mm | Total diameter (tumor + leg) (HT1080 tumors; Day 7): 7.4 mm | Total diameter (tumor + leg) (HT1080 tumors; Day 7, iv Days 0, 7 and 14, PM01183 […], Compound D 0.5 mg/kg): 8.7 mm | Total diameter (tumor + leg) (HT1080 tumors; Day 9): 8.1 mm | Total diameter (tumor + leg) (HT1080 tumors; Day 9, iv Days 0, 7 and 14, PM01183 […], Compound D 0.5 mg/kg): 9.4 mm | Total diameter (tumor + leg) (HT1080 tumors; Day 12): 7.9 mm | Total diameter (tumor + leg) (HT1080 tumors; Day 12, iv Days 0, 7 and 14, PM01183 […], Compound D 0.5 mg/kg): 9.4 mm | Total diameter (tumor + leg) (HT1080 tumors; Day 14): 7.7 mm | Total diameter (tumor + leg) (HT1080 tumors; Day 14, iv Days 0, 7 and 14, PM01183 […], Compound D 0.5 mg/kg): 10.1 mm | Total diameter (tumor + leg) (HT1080 tumors; Day 16): 8.8 mm | Total diameter (tumor + leg) (HT1080 tumors; Day 16, iv Days 0, 7 and 14, PM01183 […], Compound D 0.5 mg/kg): 10.9 mm | Total diameter (tumor + leg) (HT1080 tumors; Day 19): 10.2 mm | Total diameter (tumor + leg) (HT1080 tumors; Day 19, iv Days 0, 7 and 14, PM01183 […], Compound D 0.5 mg/kg): 11.2 mm | Total diameter (tumor + leg) (HT1080 tumors; Day 21): 11.2 mm | Total diameter (tumor + leg) (HT1080 tumors; Day 21, iv Days 0, 7 and 14, PM01183 […], Compound D 0.5 mg/kg): 12.1 mm | Total diameter (tumor + leg) (HT1080 tumors; Day 23): 12.2 mm | Total diameter (tumor + leg) (HT1080 tumors; Day 23, iv Days 0, 7 and 14, Compound D 0.5 mg/kg): 13.0 mm | Total diameter (tumor + leg) (HT1080 tumors; Day 26, iv Days 0, 7 and 14, Compound D 0.5 mg/kg): 15.0 mm | Total diameter (tumor + leg) (HT1080 tumors; Day 27): 13.2 mm | Total diameter (tumor + leg) (HT1080 tumors; Day 28, iv Days 0, 7 and 14, Compound D 0.5 mg/kg): 18.0 mm | Total diameter (tumor + leg) (HT1080 tumors; Day 30): 14.6 mm | Total diameter (tumor + leg) (HT1080 tumors; Day 33): 16.3 mm | Total diameter (tumor + leg) (HT1080 tumors; Day 35): 18.0 mm | GI50 [3]: 0.0208 µM | TGI [3]: 2.21E−08 Molar | CC50 [3]: 0.0247 µM | GI50 [4]: 0.0125 µM | TGI [4]: 2.86E−08 Molar | CC50 [4]: > 0.13 µM | GI50 [5]: 0.00988 µM | TGI [5]: 1.95E−08 Molar | CC50 [5]: 0.0533 µM | GI50 [6]: 0.0103 µM | TGI [6]: 2.34E−08 Molar | CC50 [6]: > 0.13 µM

COc1c(C)cc2c(c1O)[C@@H]1[C@@H]3[C@@H]4SC[C@]5(N[C@H](C)Cc6c5[nH]c5ccccc65)C(=O)OC[C@@H](c5c6c(c(C)c(OC(C)=O)c54)OCO6)N3[C@@H](O)[C@H](C2)N1C [Compound C]
MTMD [2]: 3.0 mg/kg | Total diameter (tumor + leg) (HT1080 tumors; Day 0): 7.5 mm | Total diameter (tumor + leg) (HT1080 tumors; [7]): 7.5 mm | Total diameter (tumor + leg) (HT1080 tumors; Day 2): 8.8 mm | Total diameter (tumor + leg) (HT1080 tumors; [8]): 8.8 mm | Total diameter (tumor + leg) (HT1080 tumors; Day 5): 9.0 mm | Total diameter (tumor + leg) (HT1080 tumors; [9]): 9.0 mm | Total diameter (tumor + leg) (HT1080 tumors; Day 7): 9.6 mm | Total diameter (tumor + leg) (HT1080 tumors; [10]): 9.6 mm | Total diameter (tumor + leg) (HT1080 tumors; Day 9): 10.2 mm | Total diameter (tumor + leg) (HT1080 tumors; [11]): 10.2 mm | Total diameter (tumor + leg) (HT1080 tumors; Day 12): 10.2 mm | Total diameter (tumor + leg) (HT1080 tumors; [12]): 10.2 mm | Total diameter (tumor + leg) (HT1080 tumors; Day 14): 11.2 mm | Total diameter (tumor + leg) (HT1080 tumors; [13]): 11.2 mm | Total diameter (tumor + leg) (HT1080 tumors; Day 16): 12.4 mm | Total diameter (tumor + leg) (HT1080 tumors; [14]): 12.4 mm | Total diameter (tumor + leg) (HT1080 tumors; Day 19): 13.3 mm | Total diameter (tumor + leg) (HT1080 tumors; [15]): 13.3 mm | Total diameter (tumor + leg) (HT1080 tumors; Day 21): 15.2 mm | Total diameter (tumor + leg) (HT1080 tumors; [16]): 15.2 mm | Total diameter (tumor + leg) (HT1080 tumors; Day 23): 18.0 mm | Total diameter (tumor + leg) (HT1080 tumors; [17]): 18.0 mm | GI50 [3]: 0.0364 µM | TGI [3]: 4.42E−08 Molar | CC50 [3]: 0.065 µM | GI50 [4]: 0.0273 µM | TGI [4]: 6.63E−08 Molar | CC50 [4]: > 0.13 µM | GI50 [5]: 0.026 µM | TGI [5]: 5.46E−08 Molar | CC50 [5]: > 0.13 µM | GI50 [6]: 0.0208 µM | TGI [6]: 2.34E−08 Molar | CC50 [6]: > 0.13 µM
